Assay results taken from PubChem BioAssay AID196 (DTP/NCI, 2004).
Several values for one entry are separate records, joined by “and”; a condition that tells them apart may be missing. Identical values can stand only once. Toxic doses and inconclusive results are not listed.

Test system: BDF1 mice, intracerebral B16 melanoma, median survival T/C
Assay: NCI In Vivo Anticancer Drug Screen. Data for tumor model B16 Melanoma (intracerebral) in B6D2F1 (BDF1) mice
Conditions: endpoint: median survival time, higher = longer survival
Protocol: The antitumor activity of compounds was measured in mice bearing transplantable tumors. Survival or tumor size were measured and the results are expressed as the measurement made in the treated group (T) divided by the measurement made in the vehicle treated control group (C). The tumor model used in this assay is B16 Melanoma (intracerebral) in B6D2F1 (BDF1) mice

[1] = dose: 5.0 mg/kg/injection, schedule: Q01DX009 (ip), vehicle: saline
[2] = dose: 10.0 mg/kg/injection, schedule: Q01DX009 (ip), vehicle: saline
[3] = dose: 20.0 mg/kg/injection, schedule: Q01DX009 (ip), vehicle: saline
[4] = dose: 40.0 mg/kg/injection, schedule: Q01DX009 (ip), vehicle: saline
[5] = dose: 16.0 mg/kg/injection, schedule: Q01DX005 (ip), vehicle: saline
[6] = dose: 32.0 mg/kg/injection, schedule: Q01DX005 (ip), vehicle: saline
[7] = dose: 64.0 mg/kg/injection, schedule: Q01DX005 (ip), vehicle: saline
[8] = dose: 128.0 mg/kg/injection, schedule: Q01DX005 (ip), vehicle: saline
[9] = dose: 6.25 mg/kg/injection, schedule: Q01DX009 (ip), vehicle: other
[10] = dose: 12.5 mg/kg/injection, schedule: Q01DX009 (ip), vehicle: other
[11] = dose: 25.0 mg/kg/injection, schedule: Q01DX009 (ip), vehicle: other
[12] = dose: 50.0 mg/kg/injection, schedule: Q01DX009 (ip), vehicle: other

O=C1NC2(CCCCC2)C(=O)N1CCN(CCCl)CCCl
T/C (dose: 1.5 mg/kg/injection, schedule: Q01DX009 (ip), vehicle: saline with Tween-80): 97 % of control | T/C (dose: 3.0 mg/kg/injection, schedule: Q01DX009 (ip), vehicle: saline with Tween-80): 103 % of control | T/C (dose: 6.0 mg/kg/injection, schedule: Q01DX009 (ip), vehicle: saline with Tween-80): 106 % of control | T/C (dose: 12.0 mg/kg/injection, schedule: Q01DX009 (ip), vehicle: saline with Tween-80): 103 % of control

CCC(=O)O[C@H]1CC[C@H]2[C@@H]3CC[C@H]4CC(=O)[C@H](C)C[C@]4(C)[C@H]3CC[C@]12C
T/C (dose: 8.0 mg/kg/injection, schedule: Q01DX009 (ip), vehicle: Klucel (hydroxypropylcellulose) (HPC)): 100 % of control | T/C (dose: 16.0 mg/kg/injection, schedule: Q01DX009 (ip), vehicle: Klucel (hydroxypropylcellulose) (HPC)): 94 % of control | T/C (dose: 32.0 mg/kg/injection, schedule: Q01DX009 (ip), vehicle: Klucel (hydroxypropylcellulose) (HPC)): 105 % of control | T/C (dose: 64.0 mg/kg/injection, schedule: Q01DX009 (ip), vehicle: Klucel (hydroxypropylcellulose) (HPC)): 100 % of control | T/C (dose: 128.0 mg/kg/injection, schedule: Q01DX009 (ip), vehicle: Klucel (hydroxypropylcellulose) (HPC)): 101 % of control | T/C (dose: 256.0 mg/kg/injection, schedule: Q01DX009 (ip), vehicle: Klucel (hydroxypropylcellulose) (HPC)): 103 % of control | T/C (dose: 512.0 mg/kg/injection, schedule: Q01DX009 (ip), vehicle: Klucel (hydroxypropylcellulose) (HPC)): 94 % of control

O=C1C(=O)c2ccccc2C(O)=C1CC=C(Cl)Cl
T/C (dose: 10.0 mg/kg/injection, schedule: Q01DX005 (ip), vehicle: Klucel (hydroxypropylcellulose) (HPC)): 101 % of control | T/C (dose: 20.0 mg/kg/injection, schedule: Q01DX005 (ip), vehicle: Klucel (hydroxypropylcellulose) (HPC)): 98 % of control | T/C (dose: 40.0 mg/kg/injection, schedule: Q01DX005 (ip), vehicle: Klucel (hydroxypropylcellulose) (HPC)): 106 % of control

O=c1[nH]cc(F)c(=O)[nH]1
T/C [1]: 104 % of control and 108 % of control | T/C [2]: 90 % of control and 116 % of control | T/C [3]: 104 % of control and 112 % of control | T/C [4]: 87 % of control and 109 % of control

NC(=O)N(CCCl)N=O
T/C (dose: 1.0 mg/kg/injection, schedule: Q01DX001 (ip), vehicle: saline + alcohol): 102 % of control | T/C (dose: 2.0 mg/kg/injection, schedule: Q01DX001 (ip), vehicle: saline + alcohol): 112 % of control | T/C (dose: 4.0 mg/kg/injection, schedule: Q01DX001 (ip), vehicle: saline + alcohol): 121 % of control

COS(C)(=O)=O
T/C [5]: 89 % of control | T/C [6]: 100 % of control | T/C [7]: 95 % of control | T/C [8]: 106 % of control

COc1ccc2c(c1OC(C)=O)-c1cc(O)cc3c1C(C2)N(C(=O)CN(CCCl)CCCl)CC3 (configuration not stated)
T/C (dose: 3.12 mg/kg/injection, schedule: Q01DX009 (ip), vehicle: saline with Tween-80): 96 % of control | T/C (dose: 6.25 mg/kg/injection, schedule: Q01DX009 (ip), vehicle: saline with Tween-80): 100 % of control | T/C (dose: 8.0 mg/kg/injection, schedule: Q01DX005 (ip), vehicle: DMSO): 104 % of control | T/C (dose: 12.5 mg/kg/injection, schedule: Q01DX009 (ip), vehicle: saline with Tween-80): 93 % of control | T/C (dose: 16.0 mg/kg/injection, schedule: Q01DX005 (ip), vehicle: DMSO): 106 % of control

CC[C@]1(O)C[C@H]2CN(CCc3c([nH]c4ccccc34)[C@@](C(=O)OC)(c3cc4c(cc3OC)N(C=O)[C@H]3[C@@](O)(C(=O)OC)[C@H](OC(C)=O)[C@]5(CC)C=CCN6CC[C@]43[C@@H]65)C2)C1
T/C (dose: 0.02 mg/kg/injection, schedule: Q01DX009 (ip), vehicle: saline): 96 % of control | T/C (dose: 0.03 mg/kg/injection, schedule: Q01DX009 (ip), vehicle: saline): 96 % of control | T/C (dose: 0.06 mg/kg/injection, schedule: Q01DX009 (ip), vehicle: saline): 92 % of control and 95 % of control | T/C (dose: 0.13 mg/kg/injection, schedule: Q01DX009 (ip), vehicle: saline): 117 % of control and 108 % of control | T/C (dose: 0.26 mg/kg/injection, schedule: Q01DX009 (ip), vehicle: saline): 100 % of control

CN(N=O)C(N)=O
T/C (dose: 1.56 mg/kg/injection, schedule: Q01DX009 (ip), vehicle: saline): 118 % of control | T/C (dose: 6.25 mg/kg/injection, schedule: Q01DX009 (ip), vehicle: saline): 112 % of control | T/C (dose: 25.0 mg/kg/injection, schedule: Q01DX009 (ip), vehicle: saline): 168 % of control

O=C(O)CC(NC(=O)CP(=O)(O)O)C(=O)O (configuration not stated)
T/C (dose: 32.0 mg/kg/injection, schedule: Q04DX003 (ip), vehicle: saline): 101 % of control | T/C (dose: 64.0 mg/kg/injection, schedule: Q04DX003 (ip), vehicle: saline): 96 % of control | T/C (dose: 128.0 mg/kg/injection, schedule: Q04DX003 (ip), vehicle: saline): 90 % of control | T/C (dose: 256.0 mg/kg/injection, schedule: Q04DX003 (ip), vehicle: saline): 101 % of control | T/C (dose: 512.0 mg/kg/injection, schedule: Q04DX003 (ip), vehicle: saline): 104 % of control | T/C (dose: 1024.0 mg/kg/injection, schedule: Q04DX003 (ip), vehicle: saline): 110 % of control

CN(C)N=Nc1cccc2c1N(C)c1ccc(Cl)cc1S2
T/C [9]: 103 % of control | T/C [10]: 100 % of control | T/C [11]: 108 % of control | T/C [12]: 101 % of control | T/C (dose: 100.0 mg/kg/injection, schedule: Q01DX009 (ip), vehicle: other): 101 % of control

c1ccc([C@H]2CN3CCSC3=N2)cc1
T/C [1]: 98 % of control and 105 % of control | T/C (dose: 10.0 mg/kg/injection, schedule: Q01DX005 (ip), vehicle: saline): 120 % of control and 93 % of control | T/C [2]: 89 % of control and 94 % of control and 98 % of control | T/C (dose: 20.0 mg/kg/injection, schedule: Q01DX005 (ip), vehicle: saline): 96 % of control and 112 % of control | T/C [3]: 87 % of control and 89 % of control and 98 % of control | T/C (dose: 40.0 mg/kg/injection, schedule: Q01DX005 (ip), vehicle: saline): 93 % of control and 108 % of control | T/C [4]: 103 % of control

CN(C)N=Nc1ccnc2c(Cl)cccc12
T/C (dose: 3.12 mg/kg/injection, schedule: Q01DX009 (ip), vehicle: other): 110 % of control | T/C [9]: 116 % of control | T/C [10]: 110 % of control | T/C [11]: 108 % of control | T/C [12]: 112 % of control

O=CC(NC(=O)N(CCCl)N=O)C(O)C(O)C(O)CO (configuration not stated)
T/C (dose: 1.0 mg/kg/injection, schedule: Q01DX009 (ip), vehicle: saline): 97 % of control | T/C (dose: 2.0 mg/kg/injection, schedule: Q01DX009 (ip), vehicle: saline): 99 % of control | T/C (dose: 4.0 mg/kg/injection, schedule: Q01DX009 (ip), vehicle: saline): 111 % of control | T/C (dose: 7.5 mg/kg/injection, schedule: Q01DX001 (ip), vehicle: saline with Tween-80): 92 % of control | T/C (dose: 8.0 mg/kg/injection, schedule: Q01DX009 (ip), vehicle: saline): 117 % of control | T/C (dose: 15.0 mg/kg/injection, schedule: Q01DX001 (ip), vehicle: saline with Tween-80): 119 % of control | T/C (dose: 17.8 mg/kg/injection, schedule: Q01DX001 (ip), vehicle: Klucel (hydroxypropylcellulose) (HPC)): 120 % of control | T/C (dose: 26.7 mg/kg/injection, schedule: Q01DX001 (ip), vehicle: Klucel (hydroxypropylcellulose) (HPC)): 118 % of control | T/C (dose: 30.0 mg/kg/injection, schedule: Q01DX001 (ip), vehicle: saline with Tween-80): 103 % of control

CN(N=O)C(=O)N[C@@H](C=O)[C@@H](O)[C@H](O)[C@H](O)CO
T/C (dose: 0.12 mg/kg/injection, schedule: Q01DX009 (ip), vehicle: citric acid): 101 % of control | T/C (dose: 0.25 mg/kg/injection, schedule: Q01DX009 (ip), vehicle: citric acid): 94 % of control | T/C (dose: 0.5 mg/kg/injection, schedule: Q01DX009 (ip), vehicle: citric acid): 104 % of control | T/C (dose: 1.0 mg/kg/injection, schedule: Q01DX009 (ip), vehicle: citric acid): 102 % of control | T/C (dose: 2.0 mg/kg/injection, schedule: Q01DX009 (ip), vehicle: citric acid): 102 % of control | T/C (dose: 5.0 mg/kg/injection, schedule: Q01DX009 (ip), vehicle: citric acid): 102 % of control | T/C (dose: 10.0 mg/kg/injection, schedule: Q01DX009 (ip), vehicle: citric acid): 108 % of control | T/C (dose: 0.12 micrograms/kg/injection, schedule: Q01DX009 (ip), vehicle: citric acid): 94 % of control

CN=NNc1nc[nH]c1C(N)=O
T/C [5]: 106 % of control | T/C [6]: 95 % of control | T/C [7]: 102 % of control | T/C [8]: 107 % of control
